According to patent US7432301B2, “Use of S-nitrosothiol signaling to treat disordered control of breathing” (University of Virginia Patent Foundation, priority 2001, dated 2008):
“Also recorded” adds a separate entry of the source. Values belong to the compound of their own block, whether it stands above or below them.

How the values were obtained:
[1] = system: respiratory centers of the NTS; assay: Minute ventilation (VE) by whole-body plethysmography after bilateral microinjection into the NTS of freely behaving, conscious rats; format: in vivo, rat; conditions: for effect on VE: excess amount, n=3, P=NS; for increase in VE (minute ventilation): 1 nmol injected into NTS, conscious rats; for VE change from baseline: administered at NTS, dose not given (FIG. 1C); for onset/decay characteristics of the VE response: after injection into NTS, compared with hypoxia and return to normoxia (FIGS. 1A, 1B)
Description: To test the hypothesis that SNOs stimulate respiratory centers of the NTS to increase VE, the ability of endogenous SNOs to increase VE in freely behaving, conscious rats using whole-body plethysmography was examined.
(§1) A dual cannula (22G; Plastics One) was implanted close to the nucleus of the solitary tract according to standard stereotaxic coordinates (−14.0 mm bregma, 0.5 mm off midline, 7.0 mm depth; see Paxinos, G. & Watson, C. The Rat Brain in Stereotaxic Coordinates (Academic, New York, 1986), figure 74) through a hole drilled into the occipital skull of male Sprague-Dawley rats (approximately 250 g; pentobarbital anaesthesia). Placement was confirmed histologically after protocol completion. After recovery for 48 h (return to normal feeding and sleep/waking patterns), breath-by-breath ventilation was measured using the barometric method previously described (Gozal et al., J. Appl. Physiol. 81, 2068-2077 (1996)) after simultaneous, bilateral 0.1-ul injections in the freely behaving animal.

[2] = target: T1, γ-glutamyl transpeptidase (GGT) (Rattus norvegicus, UniProt P07314); assay: Effect of GGT inhibition (acivicin pre-treatment of NTS) on ventilatory effects of SNOs and on ventilatory offset; format: in vivo; conditions: for SNO-stimulated VE increase after GGT inhibition: SNO 10 nmol microinjection after pre-treatment with acivicin 7.5 nmol (FIG. 2A)
T1 construct: from tissue; host or cells: nucleus tractus solitarius (brainstem) of living male Sprague-Dawley rats
T1 sequence (P07314 whole entry): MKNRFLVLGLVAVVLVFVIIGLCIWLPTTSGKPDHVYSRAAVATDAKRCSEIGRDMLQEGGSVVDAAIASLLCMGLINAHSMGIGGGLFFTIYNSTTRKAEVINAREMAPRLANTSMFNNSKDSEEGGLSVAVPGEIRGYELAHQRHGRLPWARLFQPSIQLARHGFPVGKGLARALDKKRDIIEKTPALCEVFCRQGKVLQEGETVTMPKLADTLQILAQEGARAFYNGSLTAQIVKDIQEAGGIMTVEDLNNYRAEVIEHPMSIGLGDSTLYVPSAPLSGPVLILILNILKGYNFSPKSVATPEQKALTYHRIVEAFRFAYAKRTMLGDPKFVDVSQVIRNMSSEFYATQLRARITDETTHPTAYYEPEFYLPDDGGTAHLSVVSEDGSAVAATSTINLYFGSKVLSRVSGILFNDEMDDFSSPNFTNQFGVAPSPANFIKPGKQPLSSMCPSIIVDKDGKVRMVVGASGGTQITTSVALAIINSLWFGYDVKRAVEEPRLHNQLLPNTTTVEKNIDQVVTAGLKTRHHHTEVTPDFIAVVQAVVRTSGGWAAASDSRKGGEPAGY
Description: CGSNO (10 nmol) stimulated VE increases that were not modified by acivicin (P=NS; n=6). FIG. 2B represents the data generated from a hypoxic ventilatory response in GGT-deficient mice (+/+, wild type; +/−, heterozygotes; −/−, GGT-deficient). Lowest VE during the 30 s after cessation of hypoxia is expressed as percent change from pre-hypoxia baseline (P<0.0001; n=8 each group).
Endothelial transport and targeted neuronal biological activity of GSNO may depend, under certain circumstances, on biochemical modifications such as cleavage by GGT to form CGSNO. […] Moreover, normal ventilatory offset (that is, the gradual return to baseline of VE after recovery from hypoxia that prevents apnea) was inhibited by acivicin. […] This distinction may have pharmacological implications.
as §1

[3] = Relative stability of deoxygenated blood-derived SNOs; format: physicochemical
Experimental: Oxygenated blood drawn in an airtight syringe with GSH and EDTA (final concentrations 400 μM) by left ventricular puncture (rat) or peripherally (human) was maintained in 21% oxygen. Venous blood was reacted identically and was transferred to a hypoxia chamber under argon. Oxygen tension was measured electrochemically (Chirion). Samples underwent centrifugation (3,000 g for 5 min) followed by ultrafiltration (10K; Millipore), separation and selective ultraviolet photolysis (Jelight PS-3000-30; Laguna-Hills).
(§2) SNOs were prepared by acid nitrosation, titrated to pH 7.4 and maintained in EDTA in the dark at −80° C. until use to prevent decomposition. SNOs were detected by reduction/chemiluminescence as previously described (Fang et al., Biochem. Biophys. Res. Commun. 252, 535-540 (1998)). Briefly, samples were injected into 100 μM CuCl, 1 mM cysteine (pH 6; 50 8C) and purged with helium (grade 5; BOC Gases). Evolved NO was measured by chemiluminescence.

[4] = Decay of CSNO isomers in rat brainstem homogenates; format: in vitro ADME
Experimental: To test the hypothesis that SNOs stimulate respiratory centers of the NTS to increase VE, the ability of endogenous SNOs to increase VE in freely behaving, conscious rats using whole-body plethysmography was examined. […] The L- and D-isomers of CSNO decayed at identical rates in rat brainstem homogenates (26% min-1 mg -1 protein each; P=not significant (NS)).
as §2

[5] = system: blood pressure or heart rate; assay: Hemodynamic effects (blood pressure, heart rate) of SNOs; format: in vivo; conditions: same species

Structure (SMILES): Nc1nc2c(nc(Br)n2[C@@H]2O[C@@H]3COP(=O)(O)O[C@H]3[C@H]2O)c(=O)[nH]1 [8-bromocyclic GMP, reference compound]
- effect on VE [1]: neither excess 8-bromocyclic GMP nor glutathione had any effect

Structure (SMILES): N[C@@H](CSN=O)C(=O)NCC(=O)O [CGSNO, S-Nitrosocysteinyl glycine]
- SNO-stimulated VE increase after GGT inhibition [2]: not modified; also recorded: increases minute ventilation; also recorded: overcame this inhibition
- increase in VE (minute ventilation) [1]: marked increase; also recorded: equivalent increases
- VE change from baseline [1]: increases in VE
- onset/decay characteristics of the VE response [1]: identical to those observed during short exposure of the whole animal to hypoxia and return to normoxia
- stability relative to GSNO [3]: less stable than GSNO

Structure (SMILES): N[C@@H](CCC(=O)N[C@@H](CS)C(=O)NCC(=O)O)C(=O)O [glutathione]
- effect on VE [1]: neither excess 8-bromocyclic GMP nor glutathione had any effect

Continued, in another order:

- decay rate [4]: 26 % min-1 mg -1 protein
Structure (SMILES): N[C@H](CSN=O)C(=O)O [D-CSNO, S-nitroso-D-cysteine, reference compound]
- increase in VE (minute ventilation) [1]: no effect
- VE change from baseline [1]: without effect

- SNO-stimulated VE increase after GGT inhibition [2]: abolished
Structure (SMILES): N[C@@H](CCC(=O)N[C@@H](CSN=O)C(=O)NCC(=O)O)C(=O)O [GSNO, S-nitrosoglutathione]
- effects on blood pressure or heart rate (hemodynamic effects) [5]: no effects; also recorded: not reproduced
- increase in VE (minute ventilation) [1]: equivalent increases
- VE change from baseline [1]: increases in VE; also recorded: dramatically increase
- onset/decay characteristics of the VE response [1]: identical to those for recovery from hypoxia

- decay rate [4]: 26 % min-1 mg -1 protein
Structure (SMILES): N[C@@H](CSN=O)C(=O)O [L-CSNO, S-nitroso-L-cysteine]
- increase in VE (minute ventilation) [1]: equivalent increases
- VE change from baseline [1]: increases in VE

- effect on GSNO-mediated increases in VE ([2]; NTS pre-treatment with the inhibitor): attenuated
- effect on normal ventilatory offset (gradual return of VE to baseline after hypoxia) ([2]; recovery from hypoxia): inhibited
Structure (SMILES): N[C@H](C(=O)O)[C@@H]1CC(Cl)=NO1 [acivicin, reference compound]
